Laboratory results: patent US10736909B2, “Use of trehalose for treatment of neurological diseases” (JUNAXO, INC., priority 2016, dated 2020)
Where “and” joins values, the source holds several entries; their conditions need not be identical. Identical values can stand only once. Entries after “also recorded” stand apart in the source; their conditions may differ. Like-named read-outs stand apart in the source and are kept apart here.

Legend:
[1] = Plasma and brain trehalose levels 30 min post-dose in rat efficacy study (LC-MS/MS); type: in vivo, Sprague-Dawley rats; conditions: rats; for concentration at 30 min: Sprague-Dawley, rat
Method: (§1) Animal behavior was assessed pre-surgery and at 3 and 6 weeks post-surgery. Behaviour was assessed by the cylinder test to assess forelimb asymmetry with asymmetry indicating an imbalance in striatal dopaminergic function between the side injected with AAV1/2 αSYN and the contralateral side. Compounds that normalize the forelimb asymmetry are potentially useful for treating PD. After 6 weeks of trehalose treatment, the animals were killed approximately 30 mins after the last administration of trehalose. Striatal tissue from both hemispheres was collected and analysed for dopamine levels. Substantia nigra tissue was collected and analysed for the number of TH^+ve cells and the amount of A53T αSYN measured. Plasma and brain (cerebellum) samples were collected and trehalose levels analysed by LC-MS/MS.
When the animals were killed 30 mins post trehalose administration plasma and brain samples were collected (rats in the 0.89 g/kg/day group only received one dose of trehalose (0.89 g/kg) on this day). This time corresponds to approximately the Tmax of orally administered trehalose. […] Trehalose was measurable in the plasma 30 mins after receiving trehalose (0.89 or 2.67 g/kg) by oral gavage (Table 5). A 3-fold increase in the trehalose dose (0.89 g/kg to 2.67 g/kg) lead to an ˜6-fold increase in the trehalose plasma level, i.e. that increasing the dose produced a greater than dose-proportional increase in trehalose exposure. […] Trehalose was measurable in the brains of rats receiving trehalose (2.67 g/kg) by oral gavage (Table 5).
To better understand why administrating the same amount of trehalose by different routes led to differences in efficacy, studies were conducted to measure blood and brain levels of trehalose following administration of trehalose by 2% in the drinking water, three (3) times daily (0.89 g/kg each dose) and once daily (2.67 g/kg/day).

Rotenone-lesioned rat = conditions: 2% trehalose in drinking water; Wu et al. 2015; cited from earlier work
[2] = test system: Transgenic α-synuclein mouse; conditions: 2% trehalose in drinking water; Tanji et al. 2015; cited from earlier work
[3] = Plasma and brain pharmacokinetics in rats, 1 and 7 days oral administration; type: in vivo, Sprague-Dawley rats; conditions: for AUC(0-t): read-out: AUC0-12h
Method: One hundred Sprague-Dawley rats (200-260 g), female (60) and male (40), received trehalose (2.67 g/kg/day, oral gavage in sterile water) for 1 or 7 days. Groups of 5 rats (3 female, 2 male) were sacrificed at pre-dose and 15 min, 30 min, 1 h, 1.5 h, 2 h, 3 h, 4 h, 8 h and 12 h post-dose on days 1 and 7 and plasma and brain samples collected. Plasma and brain samples were analysed for trehalose levels using a validated LC-MS/MS method and plasma exposure timecourses (FIG. 1) and pharmacokinetic parameters were calculated (Table 6). Brain levels of trehalose were approximately 1% of plasma levels at all time-points (FIG. 1).

[4] = Brain and CSF trehalose levels in macaques after two days administration; type: in vivo; conditions: female, macaque, oral; for concentration at 1 h: 2.67 g/kg for two days
Method: In a subsequent step, the same 3 macaques were administered trehalose (2.67 g/kg) for two days. The macaques were then killed 1 h post-administration on day 2 and terminal brain and CSF samples collected. The brain and CSF trehalose levels were 81.3±13.8 ng/g and 562±346.5 ng/ml respectively. Similar to rats, trehalose levels in macaque brain tissue were ˜1% of the plasma level at the corresponding timepoint.

rats receiving A53T αSYN = assay: Cylinder test of forelimb asymmetry in AAV1/2 A53T αSYN rat model of PD; type: in vivo, Sprague-Dawley rats; conditions: Day 42, 2.67 g/kg, once per day p.o.
Method: Thirty female, Sprague-Dawley rats (280-325 g) split into 5 groups (N=4-8 rats/group) and received a unilateral injection in to the substantia nigra (at co-ordinates AP −5.2 mm; ML −2 mm relative to Bregma, DV −7.5 mm relative to skull over SN) of AAV1/2 delivering A53T alpha-synuclein (AAV1/2 αSYN) or empty vector (control). The A53T αSyn expressed is of the human sequence. Its control is an empty AAV1/2 vector of the same serotype and viral construction. Both AAV1/2 vectors were diluted in sterile phosphate buffered saline and administered at a volume of 2 μl. […]
as §1, with “Compounds that normalize the forelimb asymmetry are potentially useful for treating PD. After 6 weeks of trehalose treatment, the animals were killed approximately 30 mins after the last administration of trehalose.” left out

AAV α-synuclein rat = conditions: 2 and 5% in drinking water; He et al. 2015; cited from earlier work
MPTP-lesioned mouse = conditions: 2% trehalose in drinking water; Sarkar et al. 2014; cited from earlier work
α-synuclein (αSYN) = conditions: rodent models of PD; Tanji et al., He et al., Wu et al. 2015; cited from earlier work
[5] = both sexes, Sprague-Dawley, po, rat brain, Day 1, 2.67 g/kg p.o.
[6] = both sexes, Sprague-Dawley, po, rat brain, Day 7, 2.67 g/kg/day p.o.
[7] = both sexes, Sprague-Dawley, po, rat plasma, Day 1, 2.67 g/kg p.o.
[8] = both sexes, Sprague-Dawley, po, rat plasma, Day 7, 2.67 g/kg/day p.o.

## OC[C@H]1O[C@H](O[C@H]2O[C@H](CO)[C@@H](O)[C@H](O)[C@H]2O)[C@H](O)[C@@H](O)[C@@H]1O [trehalose, (2R,3S,4S,5R,6R)-2-(Hydroxymethyl)-6-[(2R,3R,4S,5S,6R)-3,4,5-trihydroxy-6-(hydroxymethyl)oxan-2-yl]oxyoxane-3,4,5-triol]
[1]; brain (cerebellum), cerebellum, 2.67 g/kg once daily oral gavage, 30 min post-dose, read-out: Brain trehalose level
  concentration at 30 min: 52.8 ± 16.9 ng/mL
[1]; plasma, 0.89 g/kg 3 times daily oral gavage, 30 min after one 0.89 g/kg dose, read-out: Plasma trehalose level
  concentration at 30 min: 1130 ± 178 ng/mL
[1]; plasma, 2.67 g/kg once daily oral gavage, 30 min post-dose, read-out: Plasma trehalose level
  concentration at 30 min: 6380 ± 890 ng/mL
[1]; cerebellum, 0.89 g/kg 3 times daily oral gavage, 30 min after one 0.89 g/kg dose
  Brain trehalose level: below the limit of detection and BLQ
[1]; cerebellum, 2% in drinking water
  Brain trehalose level: below the limit of detection and BLQ
[1]; cerebellum, 2.67 g/kg once daily oral gavage, 30 min post-dose
  Brain trehalose level: measurable
[1]; 0.89 g/kg 3 times daily oral gavage, 30 min after one 0.89 g/kg dose
  Plasma trehalose level: measurable
[1]; 0.89 g/kg to 2.67 g/kg, 30 min post-dose
  increase in trehalose plasma level on 3-fold increase in dose: 6 fold and 5.6 fold
[1]; 2% in drinking water, 6 weeks
  Plasma trehalose level: below the limit of quantification and BLQ
[1]; 2.67 g/kg once daily oral gavage, 30 min post-dose
  Plasma trehalose level: measurable
Rotenone-lesioned rat
  Effect: Neuroprotection
[2]
  Effect (autophagy): Increased
[3]; [5]
  AUC(0-inf): 97 ng·h/mL
  Cmax: 87 ng/mL
  Tmax: 15 min
  half-life: 48.6 min
  AUC(0-t): 86.8 ng·h/mL
[3]; [6]
  AUC(0-inf): 76.2 ng·h/mL
  Cmax: 73 ng/mL
  Tmax: 15 min
  half-life: 63.6 min
  AUC(0-t): 65.3 ng·h/mL
[3]; [7]
  AUC(0-inf): 11100 ng·h/mL
  Cmax: 8900 ng/mL
  Tmax: 15 min
  half-life: 45.6 min
  AUC(0-t): 10900 ng·h/mL
[3]; [8]
  AUC(0-inf): 9880 ng·h/mL
  Cmax: 8340 ng/mL
  Tmax: 15 min
  half-life: 53.4 min
  AUC(0-t): 9490 ng·h/mL
[3]; both sexes, Sprague-Dawley, rat, brain, po, rats, 2.67 g/kg/day p.o., all time-points, read-out: Brain levels of trehalose as % of plasma levels
  Kp: ~0.01
[3]; rats, 2.67 g/kg/day p.o., 8 h post-dose
  trehalose in plasma or brain 8 h post-dose: no longer detectable; also recorded: No trehalose is found
[4]; CSF, 1 h post-administration on day 2, read-out: CSF trehalose level
  concentration at 1 h: 562 ± 346 ng/mL
[4]; brain, 1 h post-administration on day 2, read-out: brain trehalose level
  concentration at 1 h: 81.3 ± 13.8 ng/g
[4]; brain, 2.67 g/kg, corresponding timepoint (1 h), read-out: brain trehalose level as % of plasma level
  Kp at 1 h: ~0.01
Rats receiving A53T αSYN
  % asymmetry (mean ± s.e.mean): reduced the asymmetry
AAV α-synuclein rat
  Effect: Neuroprotection
MPTP-lesioned mouse
  Effect: Neuroprotection
α-synuclein (αSYN)
  levels of α-synuclein (αSYN): reduces
